Assay [1] relates to P. falciparum NF54. Briefly: P. falciparum growth assay ([3H]hypoxanthine incorporation). The settings on record: Plasmodium falciparum, [3H]-hypoxanthine incorporation at 72 h, read-out: EC50 (nM), concentration that inhibits by 50% the incorporation of [3H]-hypoxanthine. The class given is cell-based. As for the experimental part:
P. falciparum strain NF54 was obtained from the Research and Reference Reagent Resource Center (MR4) (Manassas, Va.). The two strains were maintained in vitro by a modification of the method of Trager and Jensen. Cultures were maintained in A positive (A+) human erythrocytes suspended at 5% hematocrit in complete medium. 5 g albumax II (Gibco-Invitrogen, Cat No#11021037), 2.5 mg gentamicin (Sigma Aldrich), 25 mM HEPES (Invitrogen), 5 mg hypoxanthine (Sigma), and 1 L of RPMI 1640 (Invitrogen, Cat No#11875085). Cultures were grown in 100 mm petri-dishes (BD Falcon) at a volume of 15 mL and were kept in a standard gas environment of 4% CO2 and 3% O2 at temperature 37° C. in a tri-gas incubator (Cat#3131, Thermo Scientific Forma Series II Water Jacketed). Parasite growth and morphology were observed daily using thin smears at 100× (oil immersion) magnification following staining with Geimsa stain. […]
Parasite growth was detected in assay by the traditional [3H]hypoxanthine incorporation assay as previously described by Desjardins and colleagues (Antimicrob. Agents Chemother., 16(6), 710, 1979). To perform the [3H]hypoxanthine incorporation assay, the new antimalarial agents were serially diluted 1:1 into hypoxanthine-free complete medium to a final volume of 100 μL (final antimalarial agent concentration range, 10,000 nM to 4.8 nM may change in special case) in 96 well sterile cell culture plates. […] All cultures used in the study are albumax II adopted. The microtiter plates were incubated in chamber in a standard gas environment at 37° C. for 72 h. After 48 h of incubation and prior to addition of 50 μL (0.5 μCi/well) 3H-Hypoxanthine (specific activity, 20 Ci/mmol, Conc. 1.0 mCi/ml; American Radiolabeled Chemicals, Inc., St. Louis, Mo.), culture growth was assessed by making the smears that ensures the culture has grown and assay plate is further incubated for 24 h.
Following the incubation period, the plates were harvested with a FilterMate cell harvester (Perkin Elmer) onto unifilter-96 GF/B plates, washed with distilled water to remove excess radiochemical and plates were kept for drying 37° C. overnight or 60° C. for 1 h. 50 μL of Microscint scintillation cocktail (Microscint-High Efficiency LSC-Cocktail; Perkin Elmer) added in the unifilter-96 GF/B plates and kept for 15-20 min. The plates were counted in a Top Count NXT microplate scintillation and luminescence counter (Perkin Elmer). The mean values for [3H]hypoxanthine incorporation in parasitized control and non-parasitized control erythrocytes were calculated.

Assay [2] concerns P falciparum PF3D/0087/N9. Briefly: In vivo efficacy in a murine model of P. falciparum-malaria (4-day test). The arrangement: species or system Plasmodium falciparum. The settings on record: NODscidIL2Rynull mice engrafted with human erythrocytes. The source says:
In vivo efficacy against P falciparum PF3D/0087/N9 for the compounds no. 2 and 3 as described in Examples 16 and 17.
The in vivo activity in a murine model of P. falciparum-malaria was adapted from the protocol as provided by Angulo-Barturen I, Jimènez-Diaz M B, Mulet T, Rullas J, Herreros E, et al. (2008) PLoS ONE 3(5): e2252. doi:10.1371/journal.pone.0002252.
This study measures the therapeutic efficacy of compounds no. 2 and 3 against Plasmodium falciparum growing in peripheral blood of NODscidIL2Rynull mice engrafted with human erythrocytes. The antimalarial efficacy of compounds no. 2 and 3 were assessed using a “4-day test”.
The parameters of efficacy estimated in the study are a) the dose of compounds no. 2 and 3 in mg·kg^−1 that reduces parasitemia at day 7 after infection by 90% with respect to vehicle-treated mice (parameter denoted as ED90)

In the case of `CS(=O)(=O)c1c(C(F)(F)F)ccc2c1c1cc(C(F)(F)F)ccc1n2C1CCCNC[C@@H]1O` (mixture of isomers) [6 (mixture of isomers), (3R,4R)-4-[4-methylsulfonyl-3,6-bis(trifluoromethyl)carbazol-9-yl]azepan-3-ol], the EC50 in assay [1] is 45.9 nM.

Consider `COc1cc(Cl)cc2c3cc(Cl)ccc3n([C@H]3CCCNC[C@@H]3O)c12` (racemic) [8 (racemic), (3S,4S)-4-(3,6-dichloro-1-methoxy-9H-carbazol-9-yl)azepan-3-ol], for which the EC50 in assay [1] was found to be 32.9 nM.

For `O[C@H]1CNCCCC1N1c2ccc(Cl)cc2Oc2cc(Cl)ccc21` (mixture of isomers) [10 (mixture of isomers), (3R,4R)-4-(3,7-dichloro-10H-phenoxazin-10-yl)azepan-3-ol], the EC50 in assay [1] came out at 21 nM.

As to `COc1cc2c(cc1Cl)c1cc(Cl)ccc1n2[C@H]1CCCNC[C@@H]1O` (racemic) [Compound 9, (3R,4R)-4-(3,6-dichloro-2-methoxy-9H-carbazol-9-yl)azepan-3-ol], the EC50 in assay [1] stood at 18 nM.

For `O[C@H]1CNCCC[C@@H]1n1c2ccc(C(F)(F)F)cc2c2cc(C(F)(F)F)cnc21` (racemic) [Compound 14 (i), (3R,4R)-4-[3,6-bis(trifluoromethyl)pyrido[2,3-b]indol-9-yl]azepan-3-ol], the EC50 in assay [1] stood at 16.6 nM.

Consider `O[C@@H]1CNCCC[C@H]1n1c2ccc(Cl)cc2c2cc(Cl)ccc21` (stereo in doubt) [Compound 2, (3R,4R)-4-(3,6-dichloro-9H-carbazol-9-yl)azepan-3-ol], for which the EC50 in assay [1] was found to be 36.4 nM. In addition, in assay [2], the “ED90, dose that reduces parasitemia at day 7 after infection by 90% with respect to vehicle-treated mice” value is under 10 mg/kg.

As to `O[C@@H]1CNCCC[C@H]1n1c2ccc(C(F)(F)F)cc2c2cc(C(F)(F)F)ccc21` [Compound 3, (3R,4R)-4-[3,6-bis(trifluoromethyl)-9H-carbazol-9-yl]azepan-3-ol], the EC50 in assay [1] stood at 2.55 nM. Also, the “ED90, dose that reduces parasitemia at day 7 after infection by 90% with respect to vehicle-treated mice” value in assay [2] was under 3 mg/kg.

On to `COc1cc2c(cc1C(F)(F)F)c1nc(C(F)(F)F)ccc1n2[C@@H]1CCCNC[C@H]1O` [Compound 17, (3R,4R)-4-(7-methoxy-2,8-bis(trifluoromethyl)-5H-pyrido[3,2-b]indol-5-yl)azepan-3-ol], for which the EC50 in assay [1] is 12.8 nM.

With `COc1cc2c(cc1C(F)(F)F)c1nc(C(F)(F)F)ccc1n2[C@H]1CCCNC[C@@H]1O` [Compound 18, (3S,4S)-4-(7-methoxy-2,8-bis(trifluoromethyl)-5H-pyrido[3,2-b]indol-5-yl)azepan-3-ol], the EC50 in assay [1] was 5.4 nM.

For `COc1cc(Cl)cc2c3nc(C(F)(F)F)ccc3n([C@@H]3CCCNC[C@H]3O)c12` [Compound 19, (3R,4R)-4-(8-chloro-6-methoxy-2-(trifluoromethyl)-5H-pyrido[3,2-b]indol-5-yl)azepan-3-ol], the EC50 in assay [1] is 24 nM.

With `COc1cc(Cl)cc2c3nc(C(F)(F)F)ccc3n([C@H]3CCCNC[C@@H]3O)c12` [Compound 20, (3S,4S)-4-(8-chloro-6-methoxy-2-(trifluoromethyl)-5H-pyrido[3,2-b]indol-5-yl)azepan-3-ol], the EC50 in assay [1] worked out at 13.1 nM.

In the case of `O[C@@H]1CNCCC[C@H]1n1c2ccc(Cl)cc2c2nc(C(F)(F)F)ncc21` [Compound 21, (3R,4R)-4-(8-chloro-2-(trifluoromethyl)-5H-pyrimido[5,4-b]indol-5-yl)azepan-3-ol], the EC50 in assay [1] stood at 41.7 nM.

Consider `O[C@H]1CNCCC[C@@H]1n1c2ccc(Cl)cc2c2nc(C(F)(F)F)ncc21` [Compound 22, (3S,4S)-4-(8-chloro-2-(trifluoromethyl)-5H-pyrimido[5,4-b]indol-5-yl)azepan-3-ol], for which the EC50 in assay [1] is 46.1 nM.

Consider `O[C@@H]1CNCCC[C@H]1n1c2ccc(C(F)(F)F)nc2c2cc(C(F)(F)F)cnc21` [Compound 23, (3R,4R)-4-(2,8-bis(trifluoromethyl)-5H-pyrrolo[2,3-b:4,5-b′]dipyridin-5-yl)azepan-3-ol], for which, in assay [1], the EC50 was 11.2 nM.

Consider `O[C@H]1CNCCC[C@@H]1n1c2ccc(C(F)(F)F)nc2c2cc(C(F)(F)F)cnc21` [Compound 24, (3S,4S)-4-(2,8-bis(trifluoromethyl)-5H-pyrrolo[2,3-b:4,5-b′]dipyridin-5-yl)azepan-3-ol], for which the EC50 in assay [1] was 2.3 nM.

Take `O=C1CC[C@@H](n2c3ccc(Cl)cc3c3cc(Cl)ccc32)[C@H](O)CN1` [Compound 27, (5R,6R)-5-(3,6-dichloro-9H-carbazol-9-yl)-6-hydroxyazepan-2-one]: in assay [1], the EC50 came out at 28.2 nM.

The record behind these values is US9994577B2, “Azepanyl-derivatives and pharmaceutical compositions comprising the same with antiparasitic activity” (Merck Patent GmbH, priority 2014, dated 2018).
